Experiments:
[1] = Lipophilicity, log P of compound by shake flask method; assay type: physicochemical; conditions: octanol/water
[2] = system: HUVEC; assay: Antiproliferative activity against recombinant human VEGF-stimulated HUVEC after 120 hrs by CCK8 assay; assay type: functional, cell-based
[3] = cells; conditions: Mus musculus, BaF3, 72 h
[4] = biological target: T1, Vascular endothelial growth factor receptor 2 (Homo sapiens, UniProt P35968); assay: Inhibition of recombinant VEGFR2 (unknown origin) using poly (Glu, Tyr) 4:1 as substrate incubated for 60 mins by ELISA
[5] = biological target: Hepatocyte growth factor receptor (Homo sapiens, UniProt P08581); assay: Inhibition of recombinant c-Met (unknown origin) using poly (Glu, Tyr) 4:1 as substrate incubated for 60 mins by ELISA
[6] = biological target: T1, Vascular endothelial growth factor receptor 2; assay: Inhibition of VEGFR2 (unknown origin)

T1 sequence (P35968 whole entry): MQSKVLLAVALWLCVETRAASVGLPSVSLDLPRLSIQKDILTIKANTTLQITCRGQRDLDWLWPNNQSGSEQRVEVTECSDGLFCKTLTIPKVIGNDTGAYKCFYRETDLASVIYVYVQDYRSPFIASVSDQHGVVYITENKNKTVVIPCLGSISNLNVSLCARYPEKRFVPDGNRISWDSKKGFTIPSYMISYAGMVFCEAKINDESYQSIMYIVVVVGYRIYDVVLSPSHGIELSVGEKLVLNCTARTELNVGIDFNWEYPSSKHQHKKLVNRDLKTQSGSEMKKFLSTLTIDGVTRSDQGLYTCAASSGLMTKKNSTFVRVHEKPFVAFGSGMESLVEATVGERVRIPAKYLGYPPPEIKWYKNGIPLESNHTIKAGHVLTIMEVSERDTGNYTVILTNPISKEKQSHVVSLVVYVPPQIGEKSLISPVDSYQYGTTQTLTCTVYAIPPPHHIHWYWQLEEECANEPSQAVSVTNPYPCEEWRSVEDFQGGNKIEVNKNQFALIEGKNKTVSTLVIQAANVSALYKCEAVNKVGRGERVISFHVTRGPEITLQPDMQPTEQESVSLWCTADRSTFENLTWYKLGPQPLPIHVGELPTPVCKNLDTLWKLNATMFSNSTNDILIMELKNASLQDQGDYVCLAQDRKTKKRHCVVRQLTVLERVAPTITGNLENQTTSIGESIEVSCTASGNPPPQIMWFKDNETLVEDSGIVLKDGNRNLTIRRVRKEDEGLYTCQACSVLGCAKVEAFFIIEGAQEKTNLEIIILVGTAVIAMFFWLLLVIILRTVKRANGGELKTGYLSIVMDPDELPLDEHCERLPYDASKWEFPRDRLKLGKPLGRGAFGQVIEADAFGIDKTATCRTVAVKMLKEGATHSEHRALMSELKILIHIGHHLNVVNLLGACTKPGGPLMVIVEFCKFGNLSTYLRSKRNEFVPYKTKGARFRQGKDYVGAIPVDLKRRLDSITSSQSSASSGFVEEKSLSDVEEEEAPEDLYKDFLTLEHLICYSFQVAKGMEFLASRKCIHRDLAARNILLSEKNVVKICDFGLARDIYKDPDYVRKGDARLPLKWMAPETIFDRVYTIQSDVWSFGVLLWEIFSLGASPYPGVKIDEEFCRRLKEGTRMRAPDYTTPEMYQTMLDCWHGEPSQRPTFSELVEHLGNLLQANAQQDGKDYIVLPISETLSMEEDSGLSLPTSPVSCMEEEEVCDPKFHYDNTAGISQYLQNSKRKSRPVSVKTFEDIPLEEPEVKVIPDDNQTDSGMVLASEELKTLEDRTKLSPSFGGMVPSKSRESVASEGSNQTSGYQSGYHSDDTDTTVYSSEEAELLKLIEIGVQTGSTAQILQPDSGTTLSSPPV
Hepatocyte growth factor receptor, sequence (P08581 whole entry): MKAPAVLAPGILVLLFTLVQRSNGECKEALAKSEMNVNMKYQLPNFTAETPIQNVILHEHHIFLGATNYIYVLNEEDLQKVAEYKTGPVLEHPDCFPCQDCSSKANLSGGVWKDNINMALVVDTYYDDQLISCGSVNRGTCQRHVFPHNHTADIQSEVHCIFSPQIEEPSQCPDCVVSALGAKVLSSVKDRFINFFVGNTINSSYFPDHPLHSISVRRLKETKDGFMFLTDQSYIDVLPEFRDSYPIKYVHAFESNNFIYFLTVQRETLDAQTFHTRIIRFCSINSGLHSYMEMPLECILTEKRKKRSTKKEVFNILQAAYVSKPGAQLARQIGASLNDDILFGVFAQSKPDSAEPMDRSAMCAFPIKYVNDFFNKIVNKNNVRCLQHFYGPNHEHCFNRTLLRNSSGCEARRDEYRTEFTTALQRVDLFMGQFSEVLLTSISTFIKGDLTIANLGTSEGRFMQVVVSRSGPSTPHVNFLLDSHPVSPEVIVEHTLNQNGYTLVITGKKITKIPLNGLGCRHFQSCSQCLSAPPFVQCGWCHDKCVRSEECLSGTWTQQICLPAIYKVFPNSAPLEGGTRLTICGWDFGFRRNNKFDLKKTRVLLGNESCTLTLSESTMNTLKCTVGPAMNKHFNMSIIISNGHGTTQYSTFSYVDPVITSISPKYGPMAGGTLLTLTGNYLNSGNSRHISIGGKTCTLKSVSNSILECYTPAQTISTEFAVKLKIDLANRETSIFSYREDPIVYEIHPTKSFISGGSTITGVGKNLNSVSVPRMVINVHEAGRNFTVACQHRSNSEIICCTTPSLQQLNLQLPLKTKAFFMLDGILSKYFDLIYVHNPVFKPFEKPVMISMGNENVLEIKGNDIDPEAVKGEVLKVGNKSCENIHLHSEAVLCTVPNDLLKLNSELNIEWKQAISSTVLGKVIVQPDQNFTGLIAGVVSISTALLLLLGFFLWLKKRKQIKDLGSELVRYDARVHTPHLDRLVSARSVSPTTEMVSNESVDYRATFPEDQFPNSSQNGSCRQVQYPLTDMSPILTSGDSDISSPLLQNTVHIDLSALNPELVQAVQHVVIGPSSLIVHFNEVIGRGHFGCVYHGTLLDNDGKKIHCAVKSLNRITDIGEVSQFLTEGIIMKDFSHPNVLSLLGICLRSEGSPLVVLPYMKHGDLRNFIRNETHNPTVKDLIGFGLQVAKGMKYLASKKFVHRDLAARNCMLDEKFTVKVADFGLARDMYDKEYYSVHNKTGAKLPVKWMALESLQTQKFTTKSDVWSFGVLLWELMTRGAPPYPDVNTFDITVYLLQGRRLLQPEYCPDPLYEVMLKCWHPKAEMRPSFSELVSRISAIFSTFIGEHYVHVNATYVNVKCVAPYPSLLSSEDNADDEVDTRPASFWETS

logP ([1]; read-out: logP)	IC50 [3]	Structure (SMILES)	IC50 [2]	other results
2.62	0.194 µM	Nc1ncnc(Oc2ccc(NC(=O)C3(C(=O)Nc4ccc(F)cc4)CC3)cc2F)c1/C=N/O	0.26 µM	
3.5	0.162 µM	Nc1ncnc(Oc2ccc(NC(=O)C3(C(=O)Nc4ccc(F)cc4)CC3)cc2F)c1/C=N/OCCN1CCCC1	0.168 µM	
3.52	> 1 µM	CNc1ncnc(Oc2ccc(NC(=O)C3(C(=O)Nc4ccc(F)cc4)CC3)cc2F)c1/C=N/OC		IC50 [4]: > 10 µM; IC50 [5]: > 10 µM
2.02	0.158 µM	Nc1ncnc(Oc2ccc(NC(=O)C3(C(=O)Nc4ccc(F)cc4)CC3)cc2F)c1/C=N/OCC(O)CN1CCOCC1 (centres undefined)	0.72 µM	
2.75	0.258 µM	CC(O)CO/N=C/c1c(N)ncnc1Oc1ccc(NC(=O)C2(C(=O)Nc3ccc(F)cc3)CC2)cc1F (centres undefined)		
3.18	0.243 µM	COCCCO/N=C/c1c(N)ncnc1Oc1ccc(NC(=O)C2(C(=O)Nc3ccc(F)cc3)CC2)cc1F		
2.37	0.2 µM	Nc1ncnc(Oc2ccc(NC(=O)C3(C(=O)Nc4ccc(F)cc4)CC3)cc2F)c1/C=N/OCCO		
2.25	0.765 µM	N/N=C/c1c(N)ncnc1Oc1ccc(NC(=O)C2(C(=O)Nc3ccc(F)cc3)CC2)cc1F		
3.41	0.215 µM	CCO/N=C/c1c(N)ncnc1Oc1ccc(NC(=O)C2(C(=O)Nc3ccc(F)cc3)CC2)cc1F		
4.27	0.745 µM	Nc1ncnc(Oc2ccc(NC(=O)C3(C(=O)Nc4ccc(F)cc4)CC3)cc2F)c1/C=N/OC1CCCC1		
3.04	0.166 µM	CO/N=C/c1c(N)ncnc1Oc1ccc(NC(=O)C2(C(=O)Nc3ccc(F)cc3)CC2)cc1F	0.32 µM	
3.7	0.321 µM	CC(C)(C)OC(=O)N/N=C/c1c(N)ncnc1Oc1ccc(NC(=O)C2(C(=O)Nc3ccc(F)cc3)CC2)cc1F		
4.45	0.566 µM	Nc1ncnc(Oc2ccc(NC(=O)C3(C(=O)Nc4ccc(F)cc4)CC3)cc2F)c1/C=N/OCc1ccccc1		

More lines, now with the values behind:

Structure (SMILES)	logP ([1]; read-out: logP)	IC50 [3]	IC50 [2]	other results
Nc1ncnc(Oc2ccc(NC(=O)C3(C(=O)Nc4ccc(F)cc4)CC3)cc2F)c1/C=N/OCCCN1CCCC1	3.82	0.119 µM	0.219 µM	
Nc1ncnc(Oc2ccc(NC(=O)C3(C(=O)Nc4ccc(F)cc4)CC3)cc2F)c1/C=N/OCCCO	2.67	0.11 µM	0.21 µM	
CCCCO/N=C/c1c(N)ncnc1Oc1ccc(NC(=O)C2(C(=O)Nc3ccc(F)cc3)CC2)cc1F	4.2	0.626 µM		
Nc1ncnc(Oc2ccc(NC(=O)C3(C(=O)Nc4ccc(F)cc4)CC3)cc2F)c1/C=N/OC1CCCCC1	4.69	0.879 µM		
Nc1ncnc(Oc2ccc(NC(=O)C3(C(=O)Nc4ccc(F)cc4)CC3)cc2F)c1/C=N/OCC(=O)N1CCOCC1	2.1	0.397 µM		
COc1cc2c(Oc3ccc(NC(=O)C4(C(=O)Nc5ccc(F)cc5)CC4)cc3F)ccnc2cc1OCCCN1CCOCC1 [FORETINIB]	4.28			
CN(C)CCCO/N=C/c1c(N)ncnc1Oc1ccc(NC(=O)C2(C(=O)Nc3ccc(F)cc3)CC2)cc1F	3.23	0.089 µM	0.11 µM	
COc1cc2nccc(Oc3ccc(NC(=O)C4(C(=O)Nc5ccc(F)cc5)CC4)cc3)c2cc1OC [CABOZANTINIB]				logP [1]: 4.28
C#CCO/N=C/c1c(N)ncnc1Oc1ccc(NC(=O)C2(C(=O)Nc3ccc(F)cc3)CC2)cc1F	3.34	0.521 µM		
CCOC(=O)CO/N=C/c1c(N)ncnc1Oc1ccc(NC(=O)C2(C(=O)Nc3ccc(F)cc3)CC2)cc1F	3.15	> 1 µM		
Nc1ncnc(Oc2ccc(NC(=O)C3(C(=O)Nc4ccc(F)cc4)CC3)cc2F)c1/C=N/OCCCN1CCOCC1	2.98	0.186 µM	0.427 µM	
CO/N=C/c1c(N)ncnc1Oc1ccc2[nH]ccc2c1				IC50 [6]: 0.146 µM
C=CCO/N=C/c1c(N)ncnc1Oc1ccc(NC(=O)C2(C(=O)Nc3ccc(F)cc3)CC2)cc1F	3.65	0.619 µM		
